According to PubChem BioAssay (NCI):
“And” between values parts separate entries of the source, which are not always exact repeats. Identical values can stand only once.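 96-well plates; 48 h exposure; 5 concentrations. Endpoints by linear interpolation between flanking doses. Not reached: highest tested concentration assigned. GI50: concentration for 50% inhibition of growth. At the TGI there is no net growth.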

Tests used:
Assay in all cases: inhibition of tumour cell growth, NCI panel, 48 h
[1] = system: OVCAR-5 ovarian
[2] = system: SNB-19 CNS
[3] = system: HT29 colon
[4] = system: A498 renal
[5] = system: SF-268 CNS
[6] = system: MCF7 breast
[7] = system: NCI/ADR-RES ovarian
[8] = system: T-47D breast
[9] = system: IGROV1 ovarian
[10] = system: U251 CNS
[11] = system: LOX IMVI melanoma
[12] = system: MOLT-4 leukemia
[13] = system: SF-295 CNS
[14] = system: HOP-92 NSCLC
[15] = system: SR leukemia
[16] = system: SK-MEL-5 melanoma
[17] = system: UO-31 renal
[18] = system: MDA-MB-435
[19] = system: K-562 leukemia
[20] = system: HOP-62 NSCLC
[21] = system: CAKI-1 renal
[22] = system: HS 578T breast
[23] = system: PC-3 prostate
[24] = system: SNB-75 CNS
[25] = system: 786-0 renal
[26] = system: MDA-MB-231 breast
[27] = system: TK-10 renal
[28] = system: MALME-3M melanoma
[29] = system: NCI-H460 lung
[30] = system: OVCAR-4 ovarian
[31] = system: MDA-N
[32] = system: HCC-2998 colon
[33] = system: OVCAR-3 ovarian
[34] = system: NCI-H522 lung
[35] = system: COLO 205 colon
[36] = system: UACC-62 melanoma
[37] = system: A549 NSCLC
[38] = system: SF-539 CNS
[39] = system: EKVX NSCLC
[40] = system: M14 melanoma
[41] = system: HCT-15 colon
[42] = system: NCI-H23 lung
[43] = system: KM12 colon
[44] = system: OVCAR-8 ovarian
[45] = system: HCT-116 colon
[46] = system: RXF 393 renal
[47] = system: RPMI-8226 leukemia
[48] = system: SK-MEL-28 melanoma
[49] = system: DU-145 prostate
[50] = system: SK-OV-3 ovarian
[51] = system: UACC-257 melanoma
[52] = system: CCRF-CEM leukemia
[53] = system: HL-60(TB) leukemia
[54] = system: SK-MEL-2 melanoma
[55] = system: SN12C renal
[56] = system: NCI-H226 lung
[57] = system: ACHN renal
[58] = system: SW-620 colon

CN(C)C(c1ccccc1)C1COC2Cc3ccccc3C1O2 (stereo not drawn)
TGI [1]: > 100 µM
TGI [2]: > 100 µM
TGI [3]: > 100 µM
TGI [4]: > 100 µM
TGI [5]: > 100 µM
GI50 [6]: 84 µM and 23.6 µM
TGI [6]: > 100 µM
TGI [7]: > 100 µM
TGI [8]: > 100 µM
TGI [9]: > 100 µM
TGI [10]: > 100 µM
TGI [11]: > 100 µM
TGI [12]: > 100 µM
TGI [13]: > 100 µM
TGI [14]: > 100 µM
TGI [15]: > 100 µM
TGI [16]: > 100 µM
TGI [17]: > 100 µM
TGI [18]: > 100 µM
TGI [19]: > 100 µM
TGI [20]: > 100 µM
TGI [21]: > 100 µM
TGI [22]: > 100 µM
TGI [23]: > 100 µM
TGI [24]: 89 µM and 89.4 µM
TGI [25]: > 100 µM
TGI [26]: > 100 µM
TGI [27]: > 100 µM
TGI [28]: > 100 µM
TGI [29]: > 100 µM
TGI [30]: > 100 µM
TGI [31]: > 100 µM
TGI [32]: > 100 µM
TGI [33]: > 100 µM
TGI [34]: > 100 µM
TGI [35]: > 100 µM
TGI [36]: > 100 µM
TGI [37]: > 100 µM
TGI [38]: > 100 µM
TGI [39]: > 100 µM
TGI [40]: > 100 µM
TGI [41]: > 100 µM
TGI [42]: > 100 µM
TGI [43]: > 100 µM
TGI [44]: > 100 µM
TGI [45]: > 100 µM
TGI [46]: > 100 µM
TGI [47]: > 100 µM
TGI [48]: > 100 µM
TGI [49]: > 100 µM
TGI [50]: > 100 µM
TGI [51]: > 100 µM
TGI [52]: > 100 µM
TGI [53]: > 100 µM
TGI [54]: > 100 µM
TGI [55]: > 100 µM
TGI [56]: > 100 µM
TGI [57]: > 100 µM

O=C1c2ccccc2-c2nnc3c(c21)-c1ccccc1C3
TGI [1]: > 100 µM
TGI [2]: > 100 µM
TGI [3]: > 100 µM
TGI [5]: > 100 µM
TGI [6]: > 100 µM
TGI [7]: > 100 µM
TGI [8]: > 100 µM
TGI [10]: > 100 µM
TGI [12]: 80.8 µM
TGI [13]: > 100 µM
TGI [14]: > 100 µM
TGI [15]: > 100 µM
TGI [16]: > 100 µM
TGI [17]: > 100 µM
TGI [18]: > 100 µM
TGI [21]: > 100 µM
TGI [22]: > 100 µM
TGI [23]: > 100 µM
TGI [24]: > 100 µM
TGI [25]: > 100 µM
TGI [26]: > 100 µM
TGI [28]: > 100 µM
TGI [29]: > 100 µM
TGI [31]: > 100 µM
TGI [34]: > 100 µM
TGI [35]: > 100 µM
TGI [36]: > 100 µM
TGI [37]: > 100 µM
TGI [38]: > 100 µM
TGI [39]: > 100 µM
TGI [40]: > 100 µM
TGI [41]: > 100 µM
TGI [42]: > 100 µM
TGI [43]: > 100 µM
TGI [44]: > 100 µM
TGI [45]: > 100 µM
TGI [46]: > 100 µM
TGI [58]: > 100 µM
TGI [47]: > 100 µM
TGI [49]: > 100 µM
TGI [50]: > 100 µM
TGI [51]: > 100 µM
TGI [52]: > 100 µM
TGI [53]: > 100 µM
TGI [54]: > 100 µM
TGI [55]: > 100 µM
TGI [56]: > 100 µM
TGI [57]: 84.6 µM

CC(=O)OC(C)(C)/C(C)=C/C(=O)O[C@H]1C(=O)O[C@@H]2C[C@H]3[C@H](C)C(=O)C(O[C@@H]4O[C@H](CO)[C@@H](O)[C@H](O)[C@H]4O)=C[C@]3(C)[C@H]3[C@@H](O)[C@H](O)[C@@]4(C(=O)O)OC[C@]32[C@@H]14
GI50 [1]: > 100 µM
TGI [1]: > 100 µM
GI50 [2]: > 100 µM
TGI [2]: > 100 µM
GI50 [3]: > 100 µM
TGI [3]: > 100 µM
GI50 [4]: > 100 µM
TGI [4]: > 100 µM
GI50 [5]: > 100 µM
TGI [5]: > 100 µM
GI50 [6]: 27.6 µM
TGI [6]: > 100 µM
GI50 [7]: > 100 µM
TGI [7]: > 100 µM
GI50 [8]: > 100 µM
TGI [8]: > 100 µM
GI50 [9]: > 100 µM
TGI [9]: > 100 µM
TGI [10]: > 100 µM
TGI [11]: > 100 µM
GI50 [12]: 33.9 µM
TGI [12]: > 100 µM
GI50 [14]: 65.7 µM
TGI [14]: > 100 µM
GI50 [15]: 48.5 µM
TGI [15]: > 100 µM
GI50 [17]: > 100 µM
TGI [17]: > 100 µM
GI50 [18]: > 100 µM
TGI [18]: > 100 µM
GI50 [19]: 39.5 µM
TGI [19]: > 100 µM
GI50 [20]: 69.1 µM
TGI [20]: > 100 µM
GI50 [21]: > 100 µM
TGI [21]: > 100 µM
GI50 [22]: > 100 µM
TGI [22]: > 100 µM
GI50 [23]: > 100 µM
TGI [23]: > 100 µM
GI50 [24]: > 100 µM
TGI [24]: > 100 µM
GI50 [25]: > 100 µM
TGI [25]: > 100 µM
GI50 [26]: > 100 µM
TGI [26]: > 100 µM
GI50 [27]: > 100 µM
TGI [27]: > 100 µM
GI50 [28]: 55.9 µM
TGI [28]: > 100 µM
GI50 [29]: 39.5 µM
TGI [29]: > 100 µM
GI50 [30]: > 100 µM
TGI [30]: > 100 µM
GI50 [31]: > 100 µM
TGI [31]: > 100 µM
GI50 [32]: 36.5 µM
TGI [32]: > 100 µM
GI50 [33]: 25.9 µM
TGI [33]: > 100 µM
GI50 [34]: 18.7 µM
TGI [34]: 49.5 µM
GI50 [35]: > 100 µM
TGI [35]: > 100 µM
GI50 [36]: > 100 µM
TGI [36]: > 100 µM
GI50 [37]: > 100 µM
TGI [37]: > 100 µM
GI50 [38]: 55.9 µM
TGI [38]: > 100 µM
GI50 [39]: > 100 µM
TGI [39]: > 100 µM
GI50 [40]: > 100 µM
TGI [40]: > 100 µM
GI50 [41]: > 100 µM
TGI [41]: > 100 µM
GI50 [42]: > 100 µM
TGI [42]: > 100 µM
GI50 [43]: > 100 µM
TGI [43]: > 100 µM
GI50 [44]: > 100 µM
TGI [44]: > 100 µM
GI50 [45]: 37.5 µM
TGI [45]: > 100 µM
GI50 [46]: 37.3 µM
TGI [46]: > 100 µM
GI50 [58]: > 100 µM
TGI [58]: > 100 µM
TGI [48]: > 100 µM
GI50 [49]: > 100 µM
TGI [49]: > 100 µM
GI50 [50]: > 100 µM
TGI [50]: > 100 µM
GI50 [51]: > 100 µM
TGI [51]: > 100 µM
GI50 [52]: 43.8 µM
TGI [52]: > 100 µM
GI50 [53]: 48.2 µM
TGI [53]: > 100 µM
GI50 [54]: > 100 µM
TGI [54]: > 100 µM
GI50 [55]: > 100 µM
TGI [55]: > 100 µM
GI50 [56]: 72.8 µM
TGI [56]: > 100 µM
GI50 [57]: > 100 µM
TGI [57]: > 100 µM
